Experimental data: patent US8466088B2, “Herbicidal compositions containing benzoylpyrazole compounds” (Ishihara Sangyo Kaisha, Ltd., priority 2007, dated 2013)
Where two headings read alike, the source gives them in different places.

Experiments:
[1] = system: velvetleaf; test: Example 1: pot test, foliar treatment, visually observed growth inhibition of velvetleaf; type: in vivo, Abutilon theophrasti MEDIC.
[2] = system: crabgrass; test: Example 1: pot test, foliar treatment, visually observed growth inhibition of crabgrass; type: in vivo
[3] = system: various plants; test: Example 1: pot test, foliar treatment, visually observed growth inhibition of other sown plants (Tables 5-1 to 5-137); type: in vivo; conditions: for Growth inhibition rate (%) of ivyleaf morningglory, Measured value: ivyleaf morningglory 1.5 to 2.1 leaf stage
Description: When the herbicidal activity in a case where two active ingredients are combined, is larger than the simple sum of the respective herbicidal activities of the two active ingredients (the expected activity), it is called a synergistic effect. The activity expected by the combination of two active ingredients can be calculated as follows (Colby S. R., “Weed”, vol. 15, p. 20-22, 1967). E=α+β−(α×β+100) where
α: growth inhibition rate when treated with x (g/ha) of herbicide X,
β: growth inhibition rate when treated with y (g/ha) of herbicide Y,
E: growth inhibition rate expected when treated with x (g/ha) of herbicide X and y (g/ha) of herbicide Y.
That is, when the actual growth inhibition rate (measured value) is larger than the growth inhibition rate by the above calculation (calculated value), the activity by the combination can be regarded as showing a synergistic effect.
Upland field soil was put into a 1/1,000,000 hectare pot, and seeds of various plants were sown. When the respective plants reached predetermined leaf stage, herbicidal compositions in predetermined amounts were diluted with water in an amount corresponding to 300 L/ha and applied for foliar treatment by a small sprayer.
On the 14th to 28th day after application, the state of growth of the respective plants was visually observed to determine the growth inhibition rate (measured value) in accordance with the following evaluation standard. Further, in accordance with the above Colby's formula, the growth inhibition rate (calculated value) was calculated. In Tables, with respect to the compound A, Compound Nos. in Table 1 or 3 are described, and with respect to other herbicidal compounds, common names are described.

[4] = 3.2 to 4.3 leaf stage, 21st day after application, 15 g/ha

For `COCCOc1c(S(C)(=O)=O)ccc(C(=O)c2cnn(C)c2OC(=O)SC(C)(C)C)c1C` [No. 241], the “Growth inhibition rate (%) of velvetleaf, Measured value” ([1]; 2.5 to 3.3 leaf stage, 21st day after application, 7 g/ha) was 65%, the “Growth inhibition rate (%) of velvetleaf, Measured value” ([1]; 2.5 to 3.3 leaf stage, 21st day after application, 15 g/ha) was 80% and the “Growth inhibition rate (%) of velvetleaf, Measured value” ([1]; 2.6 to 3.3 leaf stage, 20th day after application, 7 g/ha) was 70%. For the same compound, the “Growth inhibition rate (%) of velvetleaf, Measured value” ([1]; 2.8 to 3.6 leaf stage, 24th day after application, 3.75 g/ha) was 45%, the “Growth inhibition rate (%) of velvetleaf, Measured value” ([1]; 3.0 to 4.0 leaf stage, 21st day after application, 7 g/ha) was 60% and the “Growth inhibition rate (%) of velvetleaf, Measured value” ([1]; 3.0 to 4.0 leaf stage, 21st day after application, 15 g/ha) was 80%. For the same compound, the “Growth inhibition rate (%) of velvetleaf, Measured value” [1, 4] was 85%, the “Growth inhibition rate (%) of velvetleaf, Measured value” ([1]; 3.3 to 4.3 leaf stage, 20th day after application, 3.75 g/ha) was 45% and the “Growth inhibition rate (%) of velvetleaf, Measured value” ([1]; 3.3 to 4.3 leaf stage, 20th day after application, 15 g/ha) was 80%. The “Growth inhibition rate (%) of velvetleaf, Measured value” ([1]; 4.0 to 4.4 leaf stage, 22nd day after application, 15 g/ha) was 97%, the “Growth inhibition rate (%) of crabgrass, Measured value” ([2]; 3.1 to 4.0 leaf stage, 22nd day after application, 15 g/ha) was 90% and the “Growth inhibition rate (%) of crabgrass, Measured value” ([2]; 3.2 to 4.1 leaf stage, 14th day after application, 15 g/ha) was 94%. The “Growth inhibition rate (%) of crabgrass, Measured value” ([2]; 3.2 to 4.1 leaf stage, 21st day after application, 7 g/ha) was 80%, the “Growth inhibition rate (%) of crabgrass, Measured value” ([2]; 3.2 to 4.1 leaf stage, 21st day after application, 15 g/ha) was 93% and the “Growth inhibition rate (%) of crabgrass, Measured value” ([2]; 3.2 to 4.3 leaf stage, 14th day after application, 15 g/ha) was 93%. For the same compound, the “Growth inhibition rate (%) of crabgrass, Measured value” [2, 4] was 88%, the “Growth inhibition rate (%) of crabgrass, Measured value” ([2]; 3.3 to 4.2 leaf stage, 24th day after application, 15 g/ha) was 75% and the “Growth inhibition rate (%) of crabgrass, Measured value” ([2]; 3.5 to 4.2 leaf stage, 14th day after application, 15 g/ha) was 90%. The “Growth inhibition rate (%) of crabgrass, Measured value” ([2]; 3.5 to 4.2 leaf stage, 20th day after application, 1.875 g/ha) was 30%, the “Growth inhibition rate (%) of crabgrass, Measured value” ([2]; 3.5 to 4.2 leaf stage, 20th day after application, 3.75 g/ha) was 68% and the “Growth inhibition rate (%) of crabgrass, Measured value” ([2]; 3.7 to 4.6 leaf stage, 21st day after application, 7 g/ha) was 80%. The “Growth inhibition rate (%) of crabgrass, Measured value” ([2]; 3.7 to 4.6 leaf stage, 21st day after application, 15 g/ha) was 94%, the “Growth inhibition rate (%) of crabgrass, Measured value” ([2]; 4.0 to 5.0 leaf stage, 21st day after application, 7 g/ha) was 60% and the “Growth inhibition rate (%) of crabgrass, Measured value” ([2]; 4.0 to 5.0 leaf stage, 21st day after application, 15 g/ha) was 80%. The “Growth inhibition rate (%) of ivyleaf morningglory, Measured value” ([3]; 14th day after application, 75 g/ha) was 88%, the “Growth inhibition rate (%) of ivyleaf morningglory, Measured value” ([3]; 23rd day after application, 100 g/ha) was 85% and the “Growth inhibition rate (%) of prickly sida, Measured value” ([3]; prickly sida 2.1 to 3.1 leaf stage, 20th day after application, 50 g/ha) was 60%. The “Growth inhibition rate (%) of prickly sida, Measured value” ([3]; prickly sida 2.1 to 3.1 leaf stage, 20th day after application, 100 g/ha) was 60%.
For `CCNc1nc(Cl)nc(NC(C)(C)C)n1` [Terbuthylazine, terbuthylazine, reference compound], the inhibition at 125 g/ha ([1]; Abutilon theophrasti, foliar, 2.0 to 2.5 leaf stage, 21st day after application, 125 g/ha, read-out: Growth inhibition rate (%) of velvetleaf, Measured value) was 0%, the inhibition at 125 g/ha ([1]; Abutilon theophrasti, foliar, 2.4 to 3.2 leaf stage, on the 22nd day after application, foliar, active ingredient amount 125 g/ha, read-out: Growth inhibition rate (%) of velvetleaf, Measured value) was 5% and the inhibition at 2000 g/ha ([1]; Abutilon theophrasti, foliar, 2.8 to 3.6 leaf stage, 24th day after application, 2000 g/ha, read-out: Growth inhibition rate (%) of velvetleaf, Measured value) was 20%. It also gave an inhibition at 125 g/ha ([1]; Abutilon theophrasti, foliar, 3.0 to 3.5 leaf stage, 20th day after application, 125 g/ha, read-out: Growth inhibition rate (%) of velvetleaf, Measured value) of 0%, an inhibition at 375 g/ha ([1]; Abutilon theophrasti, foliar, 3.3 to 4.3 leaf stage, 20th day after application, read-out: Growth inhibition rate (%) of velvetleaf, Measured value) of 20% and an inhibition at 750 g/ha ([1]; Abutilon theophrasti, foliar, 3.3 to 4.3 leaf stage, 20th day after application, 750 g/ha, read-out: Growth inhibition rate (%) of velvetleaf, Measured value) of 30%. For the same compound, the inhibition at 175 g/ha ([1]; Abutilon theophrasti, foliar, 4.0 to 4.4 leaf stage, 22nd day after application, 175 g/ha, read-out: Growth inhibition rate (%) of velvetleaf, Measured value) was 15%, the inhibition at 375 g/ha ([1]; Abutilon theophrasti, foliar, 4.0 to 4.4 leaf stage, 22nd day after application, read-out: Growth inhibition rate (%) of velvetleaf, Measured value) was 25% and the inhibition at 175 g/ha ([2]; Digitaria sanguinalis, foliar, 3.1 to 4.0 leaf stage, 22nd day after application, 175 g/ha, read-out: Growth inhibition rate (%) of crabgrass, Measured value) was 0%. For the same compound, the inhibition at 375 g/ha ([2]; Digitaria sanguinalis, foliar, 3.1 to 4.0 leaf stage, 22nd day after application, 375 g/ha, read-out: Growth inhibition rate (%) of crabgrass, Measured value) was 0%, the inhibition at 250 g/ha ([2]; Digitaria sanguinalis, foliar, 3.2 to 4.3 leaf stage, on the 22nd day after application, foliar, active ingredient amount 250 g/ha, read-out: Growth inhibition rate (%) of crabgrass, Measured value) was 20% and the inhibition at 125 g/ha ([2]; Digitaria sanguinalis, foliar, 3.5 to 4.0 leaf stage, 21st day after application, read-out: Growth inhibition rate (%) of crabgrass, Measured value) was 0%. For the same compound, the inhibition at 125 g/ha ([2]; Digitaria sanguinalis, foliar, 4.3 to 4.5 leaf stage, 20th day after application, read-out: Growth inhibition rate (%) of crabgrass, Measured value) was 0%, the inhibition at 250 g/ha ([2]; Digitaria sanguinalis, foliar, 4.3 to 4.5 leaf stage, 20th day after application, 250 g/ha, read-out: Growth inhibition rate (%) of crabgrass, Measured value) was 0% and the inhibition at 45 g/ha ([3]; foliar, prickly sida 2.1 to 3.1 leaf stage, 20th day after application, 45 g/ha, read-out: Growth inhibition rate (%) of prickly sida, Measured value) was 0%. For the same compound, the inhibition at 63 g/ha ([3]; foliar, prickly sida 2.1 to 3.1 leaf stage, 20th day after application, 63 g/ha, read-out: Growth inhibition rate (%) of prickly sida, Measured value) was 0%, the inhibition at 125 g/ha ([3]; foliar, prickly sida 2.1 to 3.1 leaf stage, 20th day after application, 125 g/ha, read-out: Growth inhibition rate (%) of prickly sida, Measured value) was 0% and the inhibition at 250 g/ha ([3]; foliar, prickly sida 2.1 to 3.1 leaf stage, 20th day after application, 250 g/ha, read-out: Growth inhibition rate (%) of prickly sida, Measured value) was 15%. It also gave an inhibition at 500 g/ha ([3]; foliar, prickly sida 2.1 to 3.1 leaf stage, 20th day after application, 500 g/ha, read-out: Growth inhibition rate (%) of prickly sida, Measured value) of 55%.
